System: HUVEC/MSC spheroids viability
Test: Human HUVEC/MSC cell line growth inhibition [KRAS2];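 on viability, T/C: percent of DMSO vehicle control luminescence so 100% = untreated viability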
Settings: for IC50: curve of first compound; for viability, T/C: stronger effect = lower value
Summary of the method: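 The concentration series started at or near clinical Cmax (10 microM if not known) and fell in half-log increments, alone or in combination. Cells were stromal-only spheroids of pooled-donor HUVEC and hMSC (passage </=5), with different drug plates and layout from the tumor spheroid screens.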

**Q.** Which results are given for `CC(=O)OC12COC1CC(O)C1(C)C(=O)C(O)C3=C(C)C(OC(=O)C(O)C(NC(=O)OC(C)(C)C)c4ccccc4)CC(O)(C(OC(=O)c4ccccc4)C21)C3(C)C` (centres undefined) + CC1OCC2(CCN(c3cnc(Sc4ccnc(N)c4Cl)c(N)n3)CC2)C1N?
**A.** IC50 (second compound 0.0316 µM): > 3 µM; IC50 (second compound 0.1 µM): > 3 µM; IC50 (second compound 0.316 µM): > 3 µM; IC50 (second compound 1 µM): > 3 µM; IC50 (second compound 3.16 µM): > 3 µM; IC50 (second compound 10 µM): 0.176 µM; viability, T/C (second compound 0.0316 µM, first compound 0.00949 µM): 58%; viability, T/C (second compound 0.0316 µM, first compound 0.03 µM): 65.1%; viability, T/C (second compound 0.0316 µM, first compound 0.0949 µM): 67.3%; viability, T/C (second compound 0.0316 µM, first compound 0.3 µM): 58.4%; viability, T/C (second compound 0.0316 µM, first compound 0.949 µM): 68.1%; viability, T/C (second compound 0.0316 µM, first compound 3 µM): 73.6%; viability, T/C (second compound 0.1 µM, first compound 0.00949 µM): 67%; viability, T/C (second compound 0.1 µM, first compound 0.03 µM): 66%; viability, T/C (second compound 0.1 µM, first compound 0.0949 µM): 71.4%; viability, T/C (second compound 0.1 µM, first compound 0.3 µM): 57.9%; viability, T/C (second compound 0.1 µM, first compound 0.949 µM): 73.2%; viability, T/C (second compound 0.1 µM, first compound 3 µM): 72.5%; viability, T/C (second compound 0.316 µM, first compound 0.00949 µM): 56.1%; viability, T/C (second compound 0.316 µM, first compound 0.03 µM): 63.3%; viability, T/C (second compound 0.316 µM, first compound 0.0949 µM): 50%; viability, T/C (second compound 0.316 µM, first compound 0.3 µM): 53.6%; viability, T/C (second compound 0.316 µM, first compound 0.949 µM): 62.5%; viability, T/C (second compound 0.316 µM, first compound 3 µM): 68.4%; viability, T/C (second compound 1 µM, first compound 0.00949 µM): 67.2%; viability, T/C (second compound 1 µM, first compound 0.03 µM): 58%; viability, T/C (second compound 1 µM, first compound 0.0949 µM): 47.1%; viability, T/C (second compound 1 µM, first compound 0.3 µM): 52.1%; viability, T/C (second compound 1 µM, first compound 0.949 µM): 59%; viability, T/C (second compound 1 µM, first compound 3 µM): 58.5%; viability, T/C (second compound 3.16 µM, first compound 0.00949 µM): 49.8%; viability, T/C (second compound 3.16 µM, first compound 0.03 µM): 59.5%; viability, T/C (second compound 3.16 µM, first compound 0.0949 µM): 49.8%; viability, T/C (second compound 3.16 µM, first compound 0.3 µM): 54.2%; viability, T/C (second compound 3.16 µM, first compound 0.949 µM): 48%; viability, T/C (second compound 3.16 µM, first compound 3 µM): 56.2%; viability, T/C (second compound 10 µM, first compound 0.00949 µM): 55.6%; viability, T/C (second compound 10 µM, first compound 0.03 µM): 61.8%; viability, T/C (second compound 10 µM, first compound 0.0949 µM): 41.7%; viability, T/C (second compound 10 µM, first compound 0.3 µM): 50.3%; viability, T/C (second compound 10 µM, first compound 0.949 µM): 50.9%; viability, T/C (second compound 10 µM, first compound 3 µM): 46.7%

**Q.** Which results are given for `CN(C)C/C=C/C(=O)Nc1cc2c(Nc3ccc(F)c(Cl)c3)ncnc2cc1O[C@H]1CCOC1` + CC1OCC2(CCN(c3cnc(Sc4ccnc(N)c4Cl)c(N)n3)CC2)C1N?
**A.** IC50 (second compound 0.0316 µM): > 0.1 µM; IC50 (second compound 0.1 µM): > 0.1 µM; IC50 (second compound 0.316 µM): > 0.1 µM; IC50 (second compound 1 µM): > 0.1 µM; IC50 (second compound 3.16 µM): > 0.1 µM; IC50 (second compound 10 µM): > 0.1 µM; viability, T/C (second compound 0.0316 µM, first compound 0.000316 µM): 110%; viability, T/C (second compound 0.0316 µM, first compound 0.001 µM): 123%; viability, T/C (second compound 0.0316 µM, first compound 0.00316 µM): 121%; viability, T/C (second compound 0.0316 µM, first compound 0.01 µM): 103%; viability, T/C (second compound 0.0316 µM, first compound 0.0316 µM): 99.1%; viability, T/C (second compound 0.0316 µM, first compound 0.1 µM): 117%; viability, T/C (second compound 0.1 µM, first compound 0.000316 µM): 108%; viability, T/C (second compound 0.1 µM, first compound 0.001 µM): 148%; viability, T/C (second compound 0.1 µM, first compound 0.00316 µM): 105%; viability, T/C (second compound 0.1 µM, first compound 0.01 µM): 110%; viability, T/C (second compound 0.1 µM, first compound 0.0316 µM): 98.7%; viability, T/C (second compound 0.1 µM, first compound 0.1 µM): 126%; viability, T/C (second compound 0.316 µM, first compound 0.000316 µM): 108%; viability, T/C (second compound 0.316 µM, first compound 0.001 µM): 114%; viability, T/C (second compound 0.316 µM, first compound 0.00316 µM): 99.4%; viability, T/C (second compound 0.316 µM, first compound 0.01 µM): 99.3%; viability, T/C (second compound 0.316 µM, first compound 0.0316 µM): 101%; viability, T/C (second compound 0.316 µM, first compound 0.1 µM): 126%; viability, T/C (second compound 1 µM, first compound 0.000316 µM): 92.6%; viability, T/C (second compound 1 µM, first compound 0.001 µM): 118%; viability, T/C (second compound 1 µM, first compound 0.00316 µM): 106%; viability, T/C (second compound 1 µM, first compound 0.01 µM): 86.8%; viability, T/C (second compound 1 µM, first compound 0.0316 µM): 102%; viability, T/C (second compound 1 µM, first compound 0.1 µM): 108%; viability, T/C (second compound 3.16 µM, first compound 0.000316 µM): 79.7%; viability, T/C (second compound 3.16 µM, first compound 0.001 µM): 96.2%; viability, T/C (second compound 3.16 µM, first compound 0.00316 µM): 77.9%; viability, T/C (second compound 3.16 µM, first compound 0.01 µM): 94.1%; viability, T/C (second compound 3.16 µM, first compound 0.0316 µM): 89.2%; viability, T/C (second compound 3.16 µM, first compound 0.1 µM): 103%; viability, T/C (second compound 10 µM, first compound 0.000316 µM): 71.7%; viability, T/C (second compound 10 µM, first compound 0.001 µM): 85.9%; viability, T/C (second compound 10 µM, first compound 0.00316 µM): 66.5%; viability, T/C (second compound 10 µM, first compound 0.01 µM): 66.3%; viability, T/C (second compound 10 µM, first compound 0.0316 µM): 80.9%; viability, T/C (second compound 10 µM, first compound 0.1 µM): 89.3%
